Laboratory results from ChEMBL document CHEMBL4017471, “Discovery of novel aminobenzisoxazole derivatives as orally available factor IXa inhibitors” (Bioorg Med Chem Lett, 2017).
Converted amounts (≈) assume the structure as drawn. Each block holds one compound with its values, some of them ahead of it.

Tests used:
[1] = molecular target: Coagulation factor X (Homo sapiens, UniProt P00742)
Description: Inhibition of human coagulation factor 10a

[2] = molecular target: Coagulation factor IX (Homo sapiens, UniProt P00740)
[3] = Cmax in rat at 1 mg/kg, po administered as cassette dose; assay type: ADME, organism-based; set-up: dose 1 mg/kg, route oral; details: in vivo
[4] = Apparent permeability of the compound at 5 uM after 5 hrs by PAMPA; assay type: physicochemical
[5] = test system: Plasma; experiment: Anticoagulant activity in human plasma assessed as concentration required to double activated partial thromboplastin time; assay type: functional
[6] = Unbound plasma concentration in human at 10 uM measured after 4 hrs by equilibrium dialysis method; assay type: ADME, cell-free
[7] = Volume of distribution at steady state in rat at 1 mg/kg, iv; assay type: ADME, organism-based; details: in vivo, read-out: Vdss
[8] = molecular target: Cytochrome P450 2D6 (Homo sapiens, UniProt P10635); experiment: Inhibition of CYP2D6 in liver microsomes (unknown origin) assessed as formation of 1-hydroxybufuralol from bufuralol in presence of NADPH by LC-MS/MS analysis; assay type: ADME
Chain of Cytochrome P450 2D6 (P10635 whole entry): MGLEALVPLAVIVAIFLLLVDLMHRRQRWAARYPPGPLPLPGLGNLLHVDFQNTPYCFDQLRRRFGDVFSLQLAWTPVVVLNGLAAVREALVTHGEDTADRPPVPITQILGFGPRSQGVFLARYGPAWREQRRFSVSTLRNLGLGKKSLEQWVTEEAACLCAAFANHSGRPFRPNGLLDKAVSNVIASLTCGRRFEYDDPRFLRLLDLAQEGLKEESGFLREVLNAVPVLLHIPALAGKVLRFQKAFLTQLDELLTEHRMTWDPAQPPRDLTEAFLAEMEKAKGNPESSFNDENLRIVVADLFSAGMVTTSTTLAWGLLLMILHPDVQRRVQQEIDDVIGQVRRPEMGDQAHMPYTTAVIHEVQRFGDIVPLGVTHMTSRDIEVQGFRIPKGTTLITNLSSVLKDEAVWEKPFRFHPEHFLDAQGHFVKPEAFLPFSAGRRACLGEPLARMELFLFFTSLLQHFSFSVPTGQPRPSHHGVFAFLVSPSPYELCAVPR

[9] = AUCt in dog at 0.3 mg/kg, iv; assay type: ADME, organism-based, Canis lupus familiaris; details: in vivo
[10] = Unbound plasma concentration in dog at 10 uM measured after 4 hrs by equilibrium dialysis method; assay type: ADME, cell-free, Canis lupus familiaris
[11] = Oral bioavailability in rat at 10 mg/kg; assay type: ADME, organism-based; details: in vivo
[12] = Volume of distribution at steady state in dog at 0.3 mg/kg, iv; assay type: ADME, organism-based, Canis lupus familiaris; details: in vivo, read-out: Vdss
[13] = Metabolic stability in human liver microsomes at 1 uM measured after 20 mins in presence of NADP+ by LC-MS/MS method; assay type: ADME, microsome; details: read-out: Stability
[14] = Metabolic stability in dog liver microsomes at 1 uM measured after 20 mins in presence of NADP+ by LC-MS/MS method; assay type: ADME, Canis lupus familiaris, microsome; details: read-out: Stability
[15] = test system: Plasma; experiment: Anticoagulant activity in rat plasma assessed as concentration required to double activated partial thromboplastin time; assay type: functional
[16] = Apparent permeability in MDCK cells at 5 uM after 1 hr by LC-MS/MS method; assay type: ADME, cell-based, Canis lupus familiaris; details: dog
[17] = Total clearance in rat at 1 mg/kg, iv; assay type: ADME, organism-based; details: in vivo
[18] = molecular target: T1, Cytochrome P450 3A4 (Homo sapiens, UniProt P08684); experiment: Induction of CYP3A4 in hepatocytes (unknown origin) assessed as midazolam 1-hydroxylation at 0.3 to 10 uM treated for 3 days; assay type: ADME, cell-based; details: 72 h
T1 sequence (P08684 whole entry): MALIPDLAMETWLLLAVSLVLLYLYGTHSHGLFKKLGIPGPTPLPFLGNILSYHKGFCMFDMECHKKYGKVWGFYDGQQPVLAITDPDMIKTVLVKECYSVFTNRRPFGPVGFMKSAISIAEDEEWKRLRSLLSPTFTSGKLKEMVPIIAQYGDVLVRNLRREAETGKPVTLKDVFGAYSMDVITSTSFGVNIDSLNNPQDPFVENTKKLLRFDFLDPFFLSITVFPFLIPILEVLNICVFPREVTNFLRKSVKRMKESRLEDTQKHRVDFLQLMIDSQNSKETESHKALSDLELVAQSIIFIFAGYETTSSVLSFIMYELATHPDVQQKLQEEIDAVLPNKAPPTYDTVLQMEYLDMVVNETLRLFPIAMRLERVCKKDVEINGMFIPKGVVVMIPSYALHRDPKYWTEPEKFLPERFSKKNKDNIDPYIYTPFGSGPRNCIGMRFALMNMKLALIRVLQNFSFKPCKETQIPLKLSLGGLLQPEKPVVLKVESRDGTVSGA

[19] = Total clearance in dog at 0.3 mg/kg, iv; assay type: ADME, organism-based, Canis lupus familiaris; details: in vivo
[20] = Tmax in rat at 10 mg/kg, po; assay type: ADME, organism-based; details: in vivo
[21] = molecular target: T2, Cytochrome P450 1A2 (Homo sapiens, UniProt P05177); experiment: Inhibition of CYP1A2 in liver microsomes (unknown origin) assessed as formation of acetaminophen from phenacetin in presence of NADPH by LC-MS/MS analysis; assay type: ADME
T2 sequence (P05177 whole entry): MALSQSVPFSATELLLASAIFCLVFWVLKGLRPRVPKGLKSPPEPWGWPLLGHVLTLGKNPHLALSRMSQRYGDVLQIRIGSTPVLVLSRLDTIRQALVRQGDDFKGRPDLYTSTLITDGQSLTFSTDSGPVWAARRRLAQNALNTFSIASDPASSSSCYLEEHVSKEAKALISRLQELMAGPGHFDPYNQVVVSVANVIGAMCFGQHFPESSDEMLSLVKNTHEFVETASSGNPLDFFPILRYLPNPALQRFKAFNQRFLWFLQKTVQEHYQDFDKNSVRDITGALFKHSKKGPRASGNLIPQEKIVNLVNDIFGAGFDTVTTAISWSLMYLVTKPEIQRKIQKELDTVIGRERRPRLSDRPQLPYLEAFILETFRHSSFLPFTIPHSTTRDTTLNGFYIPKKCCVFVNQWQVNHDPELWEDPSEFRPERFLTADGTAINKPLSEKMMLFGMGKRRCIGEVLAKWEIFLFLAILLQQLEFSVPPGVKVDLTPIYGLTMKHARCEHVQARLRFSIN

[22] = test system: Plasma; experiment: Effect on prothrombin time in rat plasma assessed as concentration required to double prothrombin time; assay type: functional
[23] = molecular target: T1, Cytochrome P450 3A4; experiment: Inhibition of CYP3A4 in liver microsomes (unknown origin) assessed as formation of 1-hydroxymidazolam from midazolam in presence of NADPH by LC-MS/MS analysis; assay type: ADME
[24] = molecular target: T2, Cytochrome P450 1A2; experiment: Induction of CYP1A2 in hepatocytes (unknown origin) assessed as 7-ethoxyresorufin O-dealkylation at 0.3 to 10 uM treated for 3 days; assay type: ADME, cell-based; details: 72 h
[25] = Solubility of the compound in phosphate buffer at pH 7.4 measured after 1.5 hrs by UV absorbance method; assay type: physicochemical
[26] = Apparent permeability in MDCK2-MDR1 cells at 5 uM after 1 hr by LC-MS/MS method; assay type: ADME, cell-based, Canis lupus familiaris; details: dog, MDCK-MDR1
[27] = Half life in dog at 0.3 mg/kg, iv; assay type: ADME, organism-based, Canis lupus familiaris; details: in vivo
[28] = molecular target: Cytochrome P450 2C19 (Homo sapiens, UniProt P33261); experiment: Inhibition of CYP2C19 in liver microsomes (unknown origin) assessed as formation of 4-hydroxymephenytoin from S-mephenytoin in presence of NADPH by LC-MS/MS analysis; assay type: ADME
Chain of Cytochrome P450 2C19 (P33261 whole entry): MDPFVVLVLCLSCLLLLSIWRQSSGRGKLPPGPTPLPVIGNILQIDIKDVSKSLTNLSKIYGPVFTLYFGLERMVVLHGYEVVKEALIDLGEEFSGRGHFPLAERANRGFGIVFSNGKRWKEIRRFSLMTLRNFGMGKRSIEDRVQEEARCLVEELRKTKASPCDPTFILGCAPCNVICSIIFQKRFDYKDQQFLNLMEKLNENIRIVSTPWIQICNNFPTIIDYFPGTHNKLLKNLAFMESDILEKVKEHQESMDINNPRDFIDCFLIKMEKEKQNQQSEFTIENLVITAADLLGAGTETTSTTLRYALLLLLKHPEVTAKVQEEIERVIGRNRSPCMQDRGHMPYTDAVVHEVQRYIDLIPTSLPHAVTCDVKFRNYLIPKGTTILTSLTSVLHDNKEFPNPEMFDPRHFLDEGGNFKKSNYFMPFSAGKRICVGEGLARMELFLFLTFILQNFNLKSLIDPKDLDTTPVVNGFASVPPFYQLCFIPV

[29] = Metabolic stability in rat liver microsomes at 1 uM measured after 20 mins in presence of NADP+ by LC-MS/MS method; assay type: ADME, microsome; details: read-out: Stability
[30] = AUCt in rat at 1 mg/kg, iv; assay type: ADME, organism-based; details: in vivo
[31] = Half life in rat at 1 mg/kg, iv; assay type: ADME, organism-based; details: in vivo
[32] = molecular target: Cytochrome P450 2C9 (Homo sapiens, UniProt P11712); experiment: Inhibition of CYP2C9 in liver microsomes (unknown origin) assessed as formation of 4-hydroxydiclofenac from diclofenac in presence of NADPH by LC-MS/MS analysis; assay type: ADME
Chain of Cytochrome P450 2C9 (P11712 whole entry): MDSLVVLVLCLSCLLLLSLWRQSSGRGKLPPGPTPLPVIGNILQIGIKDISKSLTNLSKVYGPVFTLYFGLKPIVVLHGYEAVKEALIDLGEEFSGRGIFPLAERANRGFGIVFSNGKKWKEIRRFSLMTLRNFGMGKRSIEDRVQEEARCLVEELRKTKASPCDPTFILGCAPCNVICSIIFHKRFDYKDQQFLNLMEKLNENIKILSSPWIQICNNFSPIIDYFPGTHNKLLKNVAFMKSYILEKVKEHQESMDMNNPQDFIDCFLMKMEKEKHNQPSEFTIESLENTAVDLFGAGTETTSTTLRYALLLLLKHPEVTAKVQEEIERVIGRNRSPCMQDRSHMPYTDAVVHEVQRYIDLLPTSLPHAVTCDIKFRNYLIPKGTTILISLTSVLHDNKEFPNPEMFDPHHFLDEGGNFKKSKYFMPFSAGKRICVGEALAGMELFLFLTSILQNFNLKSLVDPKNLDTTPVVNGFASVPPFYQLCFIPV

[33] = AUCt in rat at 10 mg/kg, po; assay type: ADME, organism-based; details: in vivo
[34] = Unbound plasma concentration in rat at 10 uM measured after 4 hrs by equilibrium dialysis method; assay type: ADME, cell-free
[35] = test system: Plasma; experiment: Effect on prothrombin time in human plasma assessed as concentration required to double prothrombin time; assay type: functional
[36] = molecular target: Coagulation factor IX (Rattus norvegicus, UniProt P16296); experiment: Inhibition of rat coagulation factor 9a
Chain of Coagulation factor IX (Rattus norvegicus, UniProt P16296) (P16296 40-185 limits assumed): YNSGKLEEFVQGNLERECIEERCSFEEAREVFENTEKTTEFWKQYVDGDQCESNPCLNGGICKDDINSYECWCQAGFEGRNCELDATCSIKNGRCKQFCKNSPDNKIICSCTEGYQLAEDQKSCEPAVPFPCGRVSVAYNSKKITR
Chain of Coagulation factor IX (Rattus norvegicus, UniProt P16296) (P16296 228-462 limits assumed): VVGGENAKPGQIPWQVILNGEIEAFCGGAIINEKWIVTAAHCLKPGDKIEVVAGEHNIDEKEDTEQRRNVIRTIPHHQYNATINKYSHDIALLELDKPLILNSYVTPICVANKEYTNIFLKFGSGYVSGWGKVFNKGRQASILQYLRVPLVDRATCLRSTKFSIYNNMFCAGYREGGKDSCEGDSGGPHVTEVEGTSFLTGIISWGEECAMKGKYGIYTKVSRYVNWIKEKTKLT

[37] = Cmax in rat at 10 mg/kg, po; assay type: ADME, organism-based; set-up: dose 10 mg/kg, route oral; details: in vivo

Chain of Coagulation factor IX (Homo sapiens, UniProt P00740) (P00740 47-191 limits assumed): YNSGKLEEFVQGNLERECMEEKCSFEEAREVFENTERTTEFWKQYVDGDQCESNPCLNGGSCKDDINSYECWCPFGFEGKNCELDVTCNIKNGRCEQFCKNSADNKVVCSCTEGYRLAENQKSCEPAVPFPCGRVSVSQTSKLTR
Chain of Coagulation factor IX (Homo sapiens, UniProt P00740) (P00740 227-461 limits assumed): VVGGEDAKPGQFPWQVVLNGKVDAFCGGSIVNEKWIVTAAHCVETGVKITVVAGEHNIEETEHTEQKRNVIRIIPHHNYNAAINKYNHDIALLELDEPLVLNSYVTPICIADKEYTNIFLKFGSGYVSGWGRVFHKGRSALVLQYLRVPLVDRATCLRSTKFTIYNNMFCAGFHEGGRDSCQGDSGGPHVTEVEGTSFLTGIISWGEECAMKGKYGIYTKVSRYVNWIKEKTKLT
Chain of Coagulation factor X (P00742 41-179 limits assumed): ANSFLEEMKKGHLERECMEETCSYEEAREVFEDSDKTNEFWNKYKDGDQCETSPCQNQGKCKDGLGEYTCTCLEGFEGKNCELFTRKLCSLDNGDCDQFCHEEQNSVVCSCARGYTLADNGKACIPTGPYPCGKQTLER
Chain of Coagulation factor X (P00742 235-488 limits assumed): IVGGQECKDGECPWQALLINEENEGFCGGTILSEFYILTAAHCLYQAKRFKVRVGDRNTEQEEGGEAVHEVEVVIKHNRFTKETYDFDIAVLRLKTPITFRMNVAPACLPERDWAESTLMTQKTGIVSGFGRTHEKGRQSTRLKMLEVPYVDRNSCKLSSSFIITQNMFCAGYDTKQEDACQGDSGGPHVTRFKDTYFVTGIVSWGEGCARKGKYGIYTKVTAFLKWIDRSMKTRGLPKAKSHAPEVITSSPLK

IC50 [1]: > 100000 nM
IC50 [2]: 41 nM
Structure (SMILES): Cc1cc2c(N)noc2c(N2CC[C@@H](NC(=O)c3ccc(-n4cnnc4)cc3Cl)C2)n1

IC50 [1]: > 100000 nM
IC50 [2]: 18 nM
Structure (SMILES): Nc1noc2c(N3CCC(NC(=O)c4ccc(-n5cnnc5)cc4Cl)C3)cc(Cl)cc12 (racemic)

IC50 [1]: > 100000 nM
IC50 [2]: 50 nM
Structure (SMILES): Cc1cc(N2CCC(NC(=O)c3ccc(-n4cnnc4)cc3Cl)C2)c2onc(N)c2c1 (racemic)

IC50 [1]: > 100000 nM
IC50 [2]: 45 nM
Cmax [3]: 100 ng/mL
Papp at 5 h, 5 µM [4]: 2.7 ×10⁻⁶ cm/s
fraction unbound at 4 h, 10 µM [6]: 0.012
Structure (SMILES): Nc1noc2c(N3CC[C@@H](NC(=O)c4ccc(-n5cnnc5C(F)F)cc4Cl)C3)ncc(Cl)c12
2aPTT [5]: 32 µM

IC50 [1]: > 100000 nM
IC50 [2]: 15 nM
Cmax [3]: 390 ng/mL
Papp at 5 h, 5 µM [4]: 10.3 ×10⁻⁶ cm/s
fraction unbound at 4 h, 10 µM [6]: 0.016
Structure (SMILES): Cn1ncn(-c2ccc(C(=O)N[C@@H]3CCN(c4ncc(Cl)c5c(N)noc45)C3)c(Cl)c2)c1=O
2aPTT [5]: 13 µM

IC50 [1]: > 100000 nM
IC50 [2]: 26 nM
Cmax [3]: 380 ng/mL
Papp at 5 h, 5 µM [4]: 9.4 ×10⁻⁶ cm/s
fraction unbound at 4 h, 10 µM [6]: 0.002
Structure (SMILES): Nc1noc2c(N3CC[C@@H](NC(=O)c4ccc(-c5cncnc5)cc4Cl)C3)ncc(Cl)c12
2aPTT [5]: 101 µM

IC50 [1]: > 30000 nM
IC50 [2]: 32 nM
Structure (SMILES): Nc1noc2c(N3CC[C@@H](NC(=O)c4ccc(-n5cnnc5)cc4Cl)C3)ccc(Cl)c12

IC50 [1]: > 100000 nM
IC50 [2]: 172 nM
Structure (SMILES): Nc1noc2c(N3CC[C@@H](NC(=O)c4ccc(-n5cnnc5)cc4Cl)C3)ccc(F)c12

IC50 [1]: > 100000 nM
IC50 [2]: 32 nM
Cmax [3]: 110 ng/mL
Papp at 5 h, 5 µM [4]: 3.3 ×10⁻⁶ cm/s
fraction unbound at 4 h, 10 µM [6]: 0.001
Structure (SMILES): Nc1noc2c(N3CC[C@@H](NC(=O)c4ccc(-n5cnc6ccccc65)cc4Cl)C3)ncc(Cl)c12
2aPTT [5]: 72 µM

IC50 [1]: > 100000 nM
IC50 [2]: 13 nM
Cmax [3]: 210 ng/mL
Papp at 5 h, 5 µM [4]: 1.6 ×10⁻⁶ cm/s
fraction unbound at 4 h, 10 µM [6]: 0.005
Structure (SMILES): Nc1noc2c(N3CC[C@@H](NC(=O)c4ccc(-n5cnc(CCO)c5)cc4Cl)C3)ncc(Cl)c12
2aPTT [5]: 57 µM

IC50 [1]: > 100000 nM
IC50 [2]: 2200 nM
Structure (SMILES): Cc1ccc(N2CCC(C)(NC(=O)c3ccc(-n4cnnc4)cc3Cl)C2)c([N+](=O)[O-])c1 (stereo not drawn)

IC50 [1]: 31000 nM
IC50 [2]: 4.9 nM
Vd [7]: 0.9 L/kg
IC50 [8]: > 10000 nM
AUC(0-t) [9]: 1410 ng·h/mL
fraction unbound at 4 h, 10 µM [10]: 0.054
bioavailability [11]: 51%
Vd [12]: 1.3 L/kg
remaining at 20 min, 1 µM [13]: 11%
remaining at 20 min, 1 µM [14]: 11%
Papp at 1 h, 5 µM [16]: 14.5 ×10⁻⁶ cm/s
clearance [17]: 16.5 mL/min/kg
Activity [18]: Not Active
clearance [19]: 3.5 mL/min/kg
Tmax [20]: 1 h
IC50 [21]: > 10000 nM
IC50 [23]: > 10000 nM
Papp at 5 h, 5 µM [4]: 6.5 ×10⁻⁶ cm/s
Activity [24]: Not Active
solubility at 1.5 h [25]: 29 µM (≈ 14 µg/mL)
Papp at 1 h, 5 µM [26]: 5.8 ×10⁻⁶ cm/s
half-life [27]: 4.7 h
IC50 [28]: > 10000 nM
remaining at 20 min, 1 µM [29]: 24%
AUC(0-t) [30]: 1010 ng·h/mL
half-life [31]: 0.8 h
IC50 [32]: > 10000 nM
AUC(0-t) [33]: 5150 ng·h/mL
fraction unbound at 4 h, 10 µM [34]: 0.051
IC50 [36]: 3.7 nM
fraction unbound at 4 h, 10 µM [6]: 0.041
Cmax [37]: 1600 ng/mL
Structure (SMILES): Cc1ncn(-c2ccc(C(=O)N[C@H]3[C@H]4CC[C@H]3N(c3ncc(Cl)c5cnoc35)C4)c(Cl)c2)n1
2aPTT [15]: 6.2 µM
2PT [22]: >200 µM
2aPTT [5]: 5.8 µM
2PT [35]: >200 µM
